Laboratory results taken from patent publication US11970460B1, “4-(4,5-bis(4-bromophenyl)-2-phenyl-1H-imidazol-1-yl)benzoic acid as an antimicrobial compound” (KING FAISAL UNIVERSITY, priority 2023, dated 2024).

Key:
Staphylococcus aureus = test: Agar plate disc-diffusion, antibacterial activity (inhibition zone); format: cell-based; conditions: nutrient agar, 37° C., 48 h
Procedure: (§1) The agar plate disc-diffusion method was applied. […] The discs were then placed onto the surface of agar plates (nutrient agar for bacteria and Sabouraud's dextrose agar for fungi) seeded with the test organism. Each plate contained 15 mL of the agar medium, previously seeded with 0.2 mL of the broth culture of each organism pregrown for 18 hours. The plates were incubated at 37° C. for 48 h, and 72 h for fungi. The inhibition zones were measured in mm. Discs impregnated with DMSO were used as a control, and its inhibition zone was subtracted from the tested compound actual inhibition zone.

Pseudomonas aeruginosa = test: as above; format: cell-based; conditions: nutrient agar, 37° C., 48 h
Procedure: as §1

Bacillus cereus = test: as above; format: cell-based; conditions: nutrient agar, 37° C., 48 h
Procedure: as §1

Escherichia coli = test: as above; format: cell-based; conditions: nutrient agar, 37° C., 48 h
Procedure: as §1

[1] = tested on: Chrysosporium keratinophilum; test: Agar plate disc-diffusion, antifungal activity (inhibition zone); format: cell-based; conditions: Sabouraud's dextrose agar, 37° C., 72 h
Procedure: as §1

Aspergillus flavus = test: as above; format: cell-based; conditions: Sabouraud's dextrose agar, 37° C., 72 h
Procedure: as §1

[2] = A = concentration of comp. = 10,000 μL
[3] = B = concentration of comp. = 30,000 μL
[4] = C = concentration of comp. = 50,000 μL

- melting point: 284 °C
SMILES: O=C(O)c1ccc(-n2c(-c3ccccc3)nc(-c3ccc(Br)cc3)c2-c2ccc(Br)cc2)cc1 [V, 4-(4,5-bis(4-bromophenyl)-2-phenyl-1H-imidazol-1-yl)benzoic acid]
- inhibition zone, Staphylococcus aureus, A (Staphylococcus aureus; [2]): 18 mm
- inhibition zone, Staphylococcus aureus, B (Staphylococcus aureus; [3]): 21 mm
- inhibition zone, Staphylococcus aureus, C (Staphylococcus aureus; [4]): 31 mm
- inhibition zone, Pseudomonas aeruginosa, A (Pseudomonas aeruginosa; [2]): 25 mm
- inhibition zone, Pseudomonas aeruginosa, B (Pseudomonas aeruginosa; [3]): 28 mm
- inhibition zone, Pseudomonas aeruginosa, C (Pseudomonas aeruginosa; [4]): 44 mm
- inhibition zone, Bacillus Cereus, A (Bacillus cereus; [2]): 24 mm
- inhibition zone, Bacillus Cereus, B (Bacillus cereus; [3]): 27 mm
- inhibition zone, Bacillus Cereus, C (Bacillus cereus; [4]): 39 mm
- inhibition zone, Escherichia coli, A (Escherichia coli; [2]): 28 mm
- inhibition zone, Escherichia coli, B (Escherichia coli; [3]): 35 mm
- inhibition zone, Escherichia coli, C (Escherichia coli; [4]): 50 mm
- inhibition zone, Chrysosporium keratinophilum, A [1, 2]: 27 mm
- inhibition zone, Chrysosporium keratinophilum, B [1, 3]: 29 mm
- inhibition zone, Chrysosporium keratinophilum, C [1, 4]: 48 mm
- inhibition zone, Aspergillus flavus, A (Aspergillus flavus; [2]): 23 mm
- inhibition zone, Aspergillus flavus, B (Aspergillus flavus; [3]): 27 mm
- inhibition zone, Aspergillus flavus, C (Aspergillus flavus; [4]): 33 mm
